Assay results from patent US20090325952A1, “PYRAZOLO[3,4-B]PYRIDINE COMPOUNDS, AND THEIR USE AS PDE4 INHIBITORS” (Glaxo Group Limited, priority 2006, published 2009).
Where a name gives a salt, the structure may show the parent alone.

Biological target: PDE4D (human recombinant) (Homo sapiens, UniProt Q08499)
Assay: Inhibition of PDE4D activity (FP assay)
Format: biochemical
Details: FP assay or generally similar assay; ±about 0.5 or more
From the text: Human recombinant PDE4D (HSPDE4D3A) is disclosed in P. A. Baecker et al., “Isolation of a cDNA encoding a human rolipram-sensitive cyclic AMP phoshodiesterase (PDE IVD)”, Gene, 1994, 138, 253-256.
The ability of compounds to inhibit catalytic activity at PDE4B (human recombinant) or PDE4D (human recombinant) can optionally be determined by IMAP Fluorescence Polarisation (FP) assay (IMAP Explorer kit, available from Molecular Devices Corporation, Sunnydale, Calif., USA; Molecular Devices code: R8062) in 384-well format.
The IMAP FP assay is able to measure PDE activity in an homogenous, non-radioactive assay format. The FP assay uses the ability of immobilised trivalent metal cations, coated onto nanoparticles (tiny beads), to bind the phosphate group of Fl-AMP that is produced on the hydrolysis of fluorescein-labelled (Fl) cyclic adenosine mono-phosphate (Fl-cAMP) to the non-cyclic Fl-AMP form. […] Binding of Fl-AMP product to the beads (coated with the immobilised trivalent cations) slows the rotation of the bound Fl-AMP and leads to an increase in the fluorescence polarisation ratio of parallel to perpendicular light. Inhibition of the PDE reduces/inhibits this signal increase.
Test compounds (small volume, e.g. ca. 0.5 to 1 microlitres (ul), suitably ca. 0.5 ul, of solution in DMSO) are preincubated at ambient temperature (room temperature, e.g. 19-23° C.) in black 384-well microtitre plates (supplier: NUNC, code 262260) with PDE enzyme in 10 mM Tris-HCl buffer pH 7.2, 10 mM MgCl2, 0.1% (w/v) bovine serum albumin, and 0.05% NaN3 for 10-30 minutes. The enzyme level is set by experimentation so that reaction is linear throughout the incubation. Fluorescein adenosine 3′,5′-cyclic phosphate (from Molecular Devices Corporation, Molecular Devices code: R7091) is added to give about 40 nM final concentration (final assay volume usually ca. 20-40 ul, suitably ca. 20 ul). Plates are mixed on an orbital shaker for 10 seconds and incubated at ambient temperature for 40 minutes. IMAP binding reagent (as described above, from Molecular Devices Corporation, Molecular Devices code: R7207) is added (60 ul of a 1 in 400 dilution in binding buffer of the kit stock solution) to terminate the assay. Plates are allowed to stand at ambient temperature for 1 hour. The Fluorescence Polarisation (FP) ratio of parallel to perpendicular light is measured using an Analyst™ plate reader (from Molecular Devices Corporation). For inhibition curves, 10 concentrations (e.g. 1.5 nM-30 uM) of each compound are assayed. Curves are analysed using ActivityBase and XLfit (ID Business Solutions Limited, 2 Ocean Court, Surrey Research Park, Guildford, Surrey GU2 7QB, United Kingdom). Results are expressed as pIC50 values.
The PDE4D pIC50 values of some compounds or salts of the invention are as follows, as measured using an FP assay or a generally similar assay: • the salt of Example 1A1: PDE4D pIC50=about 10.7 (about 0.5 or more) (n=8). • the compound of Example 1B: PDE4D pIC50=about 10.4 (about 0.5 or more) (n=2). • the salt of Example 9: PDE4D pIC50>about 11.0 (± about 0.5 or more) (n=1). • the salt of Example 19: PDE4D pIC50=about 10.7 (±about 0.5 or more) (n=2). • the salt of Example 26: PDE4D pIC50=about 9.4 (±about 0.5 or more) (n=2). • the compound of Example 23A: PDE4D pIC50=about 10.5 (± about 0.5 or more) (n=1). Emesis: Some known PDE4 inhibitors can cause emesis and/or nausea to greater or lesser extents, especially after systemic exposure e.g. after oral administration (e.g. see Z. Huang et al., Current Opinion in Chemical Biology, 2001, 5: 432-438, see especially pages 433-434 and refs cited therein). Therefore, it would be preferable, but not essential, if a PDE4 inhibitory compound or salt of the invention were to cause only limited or manageable emetic side-effects, e.g. after inhaled or parenteral or external-topical administration. […]

Chain of PDE4D (human recombinant) (Q08499 1-673 isoform Q08499-2): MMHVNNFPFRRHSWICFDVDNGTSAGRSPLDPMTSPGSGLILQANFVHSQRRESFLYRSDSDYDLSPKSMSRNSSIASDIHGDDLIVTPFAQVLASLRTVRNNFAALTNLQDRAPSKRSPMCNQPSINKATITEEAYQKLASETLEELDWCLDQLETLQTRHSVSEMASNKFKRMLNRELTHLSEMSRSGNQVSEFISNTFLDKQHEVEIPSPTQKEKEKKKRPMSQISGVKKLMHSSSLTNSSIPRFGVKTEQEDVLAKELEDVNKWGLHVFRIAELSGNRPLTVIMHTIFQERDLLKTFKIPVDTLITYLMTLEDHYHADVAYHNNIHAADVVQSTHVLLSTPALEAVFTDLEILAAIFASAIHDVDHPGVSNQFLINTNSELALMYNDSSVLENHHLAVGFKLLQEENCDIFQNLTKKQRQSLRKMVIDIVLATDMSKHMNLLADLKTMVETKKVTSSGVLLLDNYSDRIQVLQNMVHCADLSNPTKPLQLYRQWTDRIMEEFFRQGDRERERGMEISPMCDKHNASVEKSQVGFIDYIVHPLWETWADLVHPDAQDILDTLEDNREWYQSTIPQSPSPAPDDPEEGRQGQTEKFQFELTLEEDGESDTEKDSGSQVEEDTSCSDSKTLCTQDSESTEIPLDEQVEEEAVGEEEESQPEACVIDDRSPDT

Row | Structure (SMILES) | PDE4D pIC50
1 | CCc1nc2c(cnn2CC)c(NC2CCN(C(N)=O)CC2)c1CNC(=O)c1ccc(NC(=O)CCCCCCCN(C)CCO)cc1.O=C(O)C(F)(F)F [Example 9, 4-({1,6-diethyl-5-[({[4-({8-[(2-hydroxyethyl)(methyl)amino]octanoyl}amino)phenyl]carbonyl}amino)methyl]-1H-pyrazolo[3,4-b]pyridin-4-yl}amino)-1-piperidinecarboxamide trifluoroacetate (salt)] | > 11.0

Same assay, conditions: FP assay or generally similar assay; ±about 0.5 or more; read-out: PDE4D pIC50 (converted)

Row | Structure (SMILES) | IC50 [nM]
2 | CCc1nc2c(cnn2CC)c(NC2CCOCC2)c1CNC(=O)c1ccc(CCCCOCCCCN(C)CCO)cc1 [Example 19, formate salt of N-{[1,6-diethyl-4-(tetrahydro-2H-pyran-4-ylamino)-1H-pyrazolo[3,4-b]pyridin-5-yl]methyl}-4-[4-({4-[(2-hydroxyethyl)(methyl)amino]butyl}oxy)butyl]benzamide] | ~0.02
3 | CCn1ncc2c(NC3CCOCC3)c(CNC(=O)c3ccc(NC(=O)CCCCCCCN(C)CCO)cc3)cnc21 [Example 26, Formate salt of N-{[1-ethyl-4-(tetrahydro-2H-pyran-4-ylamino)-1H-pyrazolo[3,4-b]pyridin-5-yl]methyl}-4-({8-[(2-hydroxyethyl)(methyl)amino]octanoyl}amino)benzamide] | ~0.398
4 | CCc1nc2c(cnn2CC)c(NC2CCOCC2)c1CNC(=O)c1ccc(NC(=O)CCCCCCCN(C)CCO)cc1 [Example 1B, N-{[1,6-diethyl-4-(tetrahydro-2H-pyran-4-ylamino)-1H-pyrazolo[3,4-b]pyridin-5-yl]methyl}-4-({8-[(2-hydroxyethyl)(methyl)amino]octanoyl}amino)benzamide] | ~0.0398

Next, values leading:

Row | IC50 [nM] | Structure (SMILES)
5 | ~0.02 | CCc1nc2c(cnn2CC)c(NC2CCOCC2)c1CNC(=O)c1ccc(NC(=O)CCCCCCCN(C)CCO)cc1 [Example 1A1, N-{[1,6-Diethyl-4-(tetrahydro-2H-pyran-4-ylamino)-1H-pyrazolo[3,4-b]pyridin-5-yl]methyl}-4-({8-[(2-hydroxyethyl)(methyl)amino]octanoyl}amino)benzamide dihydrochloride]
6 | ~0.0316 | CCc1nc2c(cnn2CC)c(NC2CCN(C(N)=O)CC2)c1CNC(=O)c1ccc(CCCCOCCCCN2CCOCC2)cc1 [Example 23A, 4-({1,6-diethyl-5-[({[4-(4-{[4-(4-morpholinyl)butyl]oxy}butyl)phenyl]carbonyl}amino)methyl]-1H-pyrazolo[3,4-b]pyridin-4-yl}amino)-1-piperidinecarboxamide]
